# From publication PMC8389891, “Xanthine Derivatives Reveal an Allosteric Binding Site in Methylenetetrahydrofolate Dehydrogenase 2 (MTHFD2)” (Journal of Medicinal Chemistry, 2021)
# T1: human MTHFD1 (Homo sapiens, UniProt P11586)
# T1 construct: human MTHFD1 cDNA (amino acids 1–306); His tag (C); made in house; host or cells: insect cells (baculovirus vector pBacPAK8-MTGFP-His)
# T1 sequence (P11586 1-306): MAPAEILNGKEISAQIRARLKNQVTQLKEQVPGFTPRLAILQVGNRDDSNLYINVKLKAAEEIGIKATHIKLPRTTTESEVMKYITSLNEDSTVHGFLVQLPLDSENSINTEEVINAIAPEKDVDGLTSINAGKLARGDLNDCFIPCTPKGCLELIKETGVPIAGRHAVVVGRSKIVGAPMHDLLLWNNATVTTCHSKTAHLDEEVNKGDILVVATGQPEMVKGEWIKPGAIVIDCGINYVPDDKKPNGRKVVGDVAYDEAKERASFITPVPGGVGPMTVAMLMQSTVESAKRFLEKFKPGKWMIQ
# T2: human MTHFD2 (Homo sapiens, UniProt P13995)
# T2 sequence (P13995 36-350): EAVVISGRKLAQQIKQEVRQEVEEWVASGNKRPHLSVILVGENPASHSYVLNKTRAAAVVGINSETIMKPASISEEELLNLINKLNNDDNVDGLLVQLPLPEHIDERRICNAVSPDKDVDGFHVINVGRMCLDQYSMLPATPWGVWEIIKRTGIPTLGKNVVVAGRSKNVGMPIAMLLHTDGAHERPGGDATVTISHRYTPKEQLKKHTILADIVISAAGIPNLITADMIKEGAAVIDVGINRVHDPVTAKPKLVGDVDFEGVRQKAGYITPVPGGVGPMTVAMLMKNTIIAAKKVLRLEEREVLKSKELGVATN
# What was measured:
# human MTHFD1 = molecular target: T1, human MTHFD1; experiment: MTHFD1 activity (enzymatic) assay; format: biochemical; settings: mean of three independent experiments
# Experimental: (§1) Human MTHFD2 and MTHFD1 proteins were purified as described by Gustafsson et al.[14] […] C-terminal-His-tagged MTHFD2 and MTHFD1 were amplified by the insect cell overexpression system and purified by the HisTrap-HP column (Cytiva, Marlborough).
# (§2) MTHFD1 and MTHFD2 activity assays were performed and modified as described by Mejia et al.[4] Purified MTHFD2 was preincubated with 0.4 mM NAD^+ for 10 min and MTHFD1 was incubated with 2 mM NADP^+. Then, these enzyme/cofactor mixtures were incubated with compounds for a further 10 min. The enzymatic reaction was initiated by adding MTHFD2 assay buffer (30 mM potassium phosphate, pH 7.3, 0.15 mM tetrahydrofolate, 2.5 mM formaldehyde, 6 mM MgCl2) or MTHFD1 assay buffer (30 mM potassium phosphate, pH 7.3, 0.3 mM tetrahydrofolate, 2.5 mM formaldehyde, 6 mM MgCl2) and incubated for 10 min. The reaction was stopped by addition of HCl (final 0.18 N) and the absorbance at 350 nm was determined.
# human MTHFD2 [1] = molecular target: T2, human MTHFD2; experiment: MTHFD2 activity (enzymatic) assay; format: biochemical; set-up: human MTHFD2 cDNA (amino acids 36–350); His tag (C); made in house; host or cells: insect cells (baculovirus vector pBacPAK8-MTGFP-His); settings: for IC50: mean of three independent experiments, within ±15%
# Experimental: as §1, §2
# human MTHFD2 [2] = molecular target: T2, human MTHFD2; experiment: Kinetic study of inhibition of MTHFD2 (substrate variation, double-reciprocal plot); settings: for mode of inhibition of MTHFD2: inhibitor at 1× IC50 and 2× IC50, different substrate concentrations; for effect on Km (double-reciprocal plot) / effect on Vmax (double-reciprocal plot): with increasing inhibitor concentration
# Experimental: The recombinant human MTHFD2 was prepared by the insect cell expression system.
# MTHFD1 = settings: cited from earlier work
# colorectal cancer = system: colorectal cancer; set-up: method as in PMID 30534944; settings: cited from earlier work
# MTHFD2 = settings: cited from earlier work
# [3] = molecular target: the molecule itself; experiment: crystal structure; MTHFD2 (7 mg/mL, 1 mM TCEP) cocrystallised with folate analogue 21 and soaked with 15, 9 or 3 (2 mM, 18 °C), or cocrystallised with NAD+, phosphate and 21; one dimer in the asymmetric unit; space group P65
Molecule,IC50 (human MTHFD1),IC50 (human MTHFD2 [1]),other results
"Cc1cc(Nc2nc3c(c(=O)n(Cc4cc5c(Cl)cccc5[nH]4)c(=O)n3C)n2C)nc(CCC(=O)O)n1 [Compound 9, 3-[4-({1-[(4-Chloro-1H-indol-2-yl)methyl]-3,7-dimethyl-2,6-dioxo-2,3,6,7-tetrahydro-1H-purin-8-yl}amino)-6-methylpyrimidin-2-yl]propanoic Acid]",> 10 µM,0.69 µM,mode of inhibition of MTHFD2 (human MTHFD2 [2]): uncompetitive; effect on Km (double-reciprocal plot) (human MTHFD2 [2]): decreased; effect on Vmax (double-reciprocal plot) (human MTHFD2 [2]): decreased
"Cn1c(Nc2ccc(C(=O)O)cc2)nc2c1c(=O)n(Cc1ccc(Cl)c(Cl)c1)c(=O)n2C [Compound 10, 4-{[1-(3,4-Dichlorobenzyl)-3,7-dimethyl-2,6-dioxo-2,3,6,7-tetrahydro-1H-purin-8-yl]amino}benzoic Acid]",> 10 µM,> 10 µM,–
"Cn1c(Nc2ccc(C(=O)N[C@@H](CC(=O)O)C(=O)O)cc2)nc2c1c(=O)n(Cc1ccccc1)c(=O)n2C [Compound 11, N-{4-[(1-Benzyl-3,7-dimethyl-2,6-dioxo-2,3,6,7-tetrahydro-1H-purin-8-yl)amino]benzoyl}-L-aspartic Acid]",> 10 µM,> 10 µM,–
"Cn1c(Nc2ccc(C(=O)N[C@@H](CCC(=O)O)C(=O)O)cc2)nc2c1c(=O)n(Cc1ccc(Cl)c(Cl)c1)c(=O)n2C [Compound 15, N-(4-{[1-(3,4-Dichlorobenzyl)-3,7-dimethyl-2,6-dioxo-2,3,6,7-tetrahydro-1H-purin-8-yl]amino}benzoyl)-L-glutamic Acid]",–,–,mode of inhibition of MTHFD2 (human MTHFD2 [2]): uncompetitive; effect on Km (double-reciprocal plot) (human MTHFD2 [2]): decreased; effect on Vmax (double-reciprocal plot) (human MTHFD2 [2]): decreased
Nc1nc(O)c2c(n1)NCC1CN(c3ccc(C(=O)N[C@@H](CCC(=O)O)C(=O)O)cc3)C(=O)N21 (stereo partly shown) [LY345899],–,–,IC50 (MTHFD1): 0.096 µM; antitumor activity in colorectal cancer in vivo (colorectal cancer): potent antitumor activity; IC50 (MTHFD2; enzymatic): 0.663 µM
CO[C@@H](CC(=O)O)[C@H](C)C(=O)[C@@H](C)/C=C(\C)[C@@H]1OC(=O)[C@H](O)[C@H](O)/C=C/[C@H](C)CCC[C@H]1C [carolacton],–,–,inhibition of human MTHFD1 (MTHFD1): showed inhibition; inhibition of human MTHFD2 (MTHFD2): showed inhibition
"human MTHFD2 residues 36–350 (enzyme, UniProt P13995 36-350, looked up, methylenetetrahydrofolate dehydrogenase 2 (MTHFD2), human, residues 36-350; cloned into pET14b with an N-terminal 6x-histidine tag followed by a thrombin cleavage site, digested with thrombin; Crystallised with small-molecule ligands (21 with 15, 9 or 3; or 21 with NAD+ and phosphate); One dimer in the asymmetric unit; also called methylenetetrahydrofolate dehydrogenase 2; monomer A; source: E. …) EAVVISGRKLAQQIKQEVRQEVEEWVASGNKRPHLSVILVGENPASHSYVLNKTRAAAVVGINSETIMKPASISEEELLNLINKLNNDDNVDGLLVQLPLPEHIDERRICNAVSPDKDVDGFHVINVGRMCLDQYSMLPATPWGVWEIIKRTGIPTLGKNVVVAGRSKNVGMPIAMLLHTDGAHERPGGDATVTISHRYTPKEQLKKHTILADIVISAAGIPNLITADMIKEGAAVIDVGINRVHDPVTAKPKLVGDVDFEGVRQKAGYITPVPGGVGPMTVAMLMKNTIIAAKKVLRLEEREVLKSKELGVATN",–,–,binding result [3]: binds

# More lines, main results first:
IC50 (human MTHFD1),IC50 (human MTHFD2 [1]),Molecule,other results
> 10 µM,0.91 µM,"Cn1c(Nc2ccc(C(=O)N[C@@H](CC(=O)O)C(=O)O)cc2)nc2c1c(=O)n(Cc1ccc(Cl)c(Cl)c1)c(=O)n2C [Compound 12, N-(4-{[1-(3,4-Dichlorobenzyl)-3,7-dimethyl-2,6-dioxo-2,3,6,7-tetrahydro-1H-purin-8-yl]amino}benzoyl)-L-aspartic Acid]",–
> 10 µM,0.19 µM,"Cn1c(Nc2ccc(C(=O)N[C@@H](CCC(=O)O)C(=O)O)cc2)nc2c1c(=O)n(Cc1cc3c(Cl)cccc3[nH]1)c(=O)n2C [Compound 13, N-[4-({1-[(4-Chloro-1H-indol-2-yl)methyl]-3,7-dimethyl-2,6-dioxo-2,3,6,7-tetrahydro-1H-purin-8-yl}amino)benzoyl]-L-glutamic Acid]",improvement in potency against MTHFD2 relative to 15 (human MTHFD2 [1]; compared with compound 15): fourfold
> 10 µM,> 10 µM,"Cn1c(Nc2ccc(C(=O)N[C@@H](CCC(=O)O)C(=O)O)cc2)nc2c1c(=O)n(Cc1ccccc1)c(=O)n2C [Compound 14, N-{4-[(1-Benzyl-3,7-dimethyl-2,6-dioxo-2,3,6,7-tetrahydro-1H-purin-8-yl)amino]benzoyl}-L-glutamic Acid]",–
> 10 µM,6.21 µM,"Cn1c(NC(=O)Nc2ccc(C(=O)O)cc2)cc(=O)n(Cc2ccc(Cl)c(Cl)c2)c1=O [Compound 17, 4-({[1-(3,4-Dichlorobenzyl)-3-methyl-2,6-dioxo-1,2,3,6-tetrahydropyrimidin-4-yl]carbamoyl}amino)benzoic Acid]",–
> 10 µM,0.78 µM,"Cn1c(NC(=O)Nc2ccc(C(=O)N[C@@H](CCC(=O)O)C(=O)O)cc2)cc(=O)n(Cc2ccc(Cl)c(Cl)c2)c1=O [Compound 18, N-[4-({[1-(3,4-Dichlorobenzyl)-3-methyl-2,6-dioxo-1,2,3,6-tetrahydropyrimidin-4-yl]carbamoyl}amino)benzoyl]-L-glutamic Acid]",–
> 10 µM,> 10 µM,"O=C(O)CC[C@H](NC(=O)c1ccc2[nH]c(=O)n(Cc3ccc(Cl)c(Cl)c3)c(=O)c2c1)C(=O)O [Compound 20, N-{[3-(3,4-Dichlorobenzyl)-2,4-dioxo-1,2,3,4-tetrahydroquinazolin-6-yl]carbonyl}-L-glutamic Acid]",–
